The target of assay [1] is T1, Adenosine receptor A1 (Rattus norvegicus) (UniProt P25099).
T1 sequence (whole entry): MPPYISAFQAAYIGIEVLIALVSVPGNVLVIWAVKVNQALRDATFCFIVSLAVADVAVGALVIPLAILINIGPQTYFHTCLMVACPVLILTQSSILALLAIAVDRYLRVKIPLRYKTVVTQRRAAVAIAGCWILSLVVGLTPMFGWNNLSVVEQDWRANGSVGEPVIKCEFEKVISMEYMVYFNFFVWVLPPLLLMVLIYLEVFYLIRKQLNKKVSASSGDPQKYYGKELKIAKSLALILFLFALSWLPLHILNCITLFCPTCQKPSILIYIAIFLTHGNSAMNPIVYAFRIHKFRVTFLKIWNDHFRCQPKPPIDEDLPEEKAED
Kind of assay: Antagonist activity by displacement of specific [3H]DPCPX binding in rat cortical membrane (Adenosine A1 receptor) at a Conc of […]. In kind it is cell membranes.

Assay [2] addresses Adenosine receptor A2a (Rattus norvegicus) (UniProt P30543). Kind of assay: Antagonistic activity assayed by displacement of specific [3H]-CGS-21,680 binding in rat striatal membrane (adenosine A2A receptor) at a conc of […]. In kind it is cell membranes. The note with it: Striatum.
The nature of assay [3]: Relative binding affinity for adenosine receptors A1 and A3 as ratio of Ki.

Chain of Adenosine receptor A2a (Rattus norvegicus) (P30543 whole entry): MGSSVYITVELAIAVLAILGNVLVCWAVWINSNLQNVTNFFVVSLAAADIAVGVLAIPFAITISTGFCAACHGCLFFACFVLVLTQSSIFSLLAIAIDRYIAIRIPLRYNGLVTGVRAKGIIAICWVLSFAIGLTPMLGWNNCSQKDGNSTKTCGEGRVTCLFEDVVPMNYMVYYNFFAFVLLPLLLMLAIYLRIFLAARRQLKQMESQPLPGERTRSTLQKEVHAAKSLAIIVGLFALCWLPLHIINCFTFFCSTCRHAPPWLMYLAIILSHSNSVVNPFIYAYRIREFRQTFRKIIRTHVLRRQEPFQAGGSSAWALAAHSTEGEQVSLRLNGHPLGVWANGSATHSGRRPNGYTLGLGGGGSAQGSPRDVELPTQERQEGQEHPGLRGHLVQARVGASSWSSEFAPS

Take `O=C(Nc1nc(-c2ccccn2)nc2ccccc12)c1ccccc1`: the Displacement in assay [1] turned out to be 0%; in assay [2], 2%.

Regarding `N=CNc1nc(-c2ccccn2)nc2ccccc12`, the Displacement came to 38% in assay [1] and 17% in assay [2].

`N=C(Nc1nc(-c2ccccn2)cc2ccccc12)c1ccccc1` showed a Displacement in assay [2] of 4%.

Consider `O=C(Nc1nc(-c2ccccn2)cc2ccccc12)c1cccc(Cl)c1`, for which the Displacement in assay [1] came to 42%; in assay [2], 0%.

As for `Cc1cccc(C)c1C(=O)Nc1nc(-c2ccccn2)cc2ccccc12`, the results for the Displacement in assay [1] and in assay [2] were 2% and 0%, respectively.

Regarding `O=C(Cc1nc(-c2ccccn2)cc2ccccc12)c1ccccc1`, the Ratio in assay [3] stood at 0.36. In addition, the Displacement in assay [2] is 22%.

Compound `Oc1nc(-c2ccccn2)cc2ccccc12` showed a Displacement in assay [1] of 21%.

In the case of `Cc1ccc(C)c(C(=O)Nc2nc(-c3ccccn3)cc3ccccc23)c1`, the Displacement amounted to 29% in assay [1] and 7% in assay [2].

Take `O=C(Nc1nc(-c2ccccn2)cc2ccccc12)c1ccc(Cl)cc1`: the Displacement came out at 11% in assay [1] and 0% in assay [2].

On to `Cc1cccc(C(=O)Nc2nc(-c3ccccn3)cc3ccccc23)c1`, for which the Displacement was 35% in assay [1] and 0% in assay [2].

As for `CC(=O)Nc1nc(-c2ccccn2)cc2ccccc12`, the Displacement in assay [1] amounted to 24%; in assay [2], 18%.

Regarding `CC(=O)Nc1nc(-c2ccccn2)nc2ccccc12`, the values for the Displacement in assay [1] and in assay [2] were 25% and 17%, respectively.

On to `COc1ccc(C(=O)Nc2nc(-c3ccccn3)cc3ccccc23)cc1`, for which the Displacement in assay [1] was determined as 14%; in assay [2], 0%.

Turning to `COc1ccc(C(=O)Nc2nc(-c3ccccn3)nc3ccccc23)cc1`, the Displacement in assay [1] is 41%; in assay [2] it was 20%.

Take `O=C(c1ccccc1)N(C(=O)c1ccccc1)c1nc(-c2ccccn2)cc2ccccc12`: the Ratio in assay [3] is 19. The Displacement in assay [2] was found to be 27%.

In the case of `COc1ccc(C(=O)Nc2nc(-c3ccccn3)cc3ccccc23)cc1OC`, the Displacement in assay [1] is 41%; in assay [2], 20%.

Consider `Cc1ccc(C(=O)Nc2nc(-c3ccccn3)cc3ccccc23)c(C)c1`, for which the Displacement in assay [1] was 14%; in assay [2], 0%.

As to `COc1cccc(C(=O)Nc2nc(-c3ccccn3)cc3ccccc23)c1`, the Displacement in assay [1] stood at 22%; in assay [2], 0%.

As to `Oc1nc(-c2ccccn2)nc2ccccc12`, the Displacement in assay [1] was 16%; in assay [2], 10%.

With `Cc1ccc(C(=O)Nc2nc(-c3ccccn3)cc3ccccc23)cc1`, the Displacement in assay [1] was 37%; in assay [2], 0%.

For the compound `N=CNc1nc(-c2ccccn2)cc2ccccc12`, the Displacement in assay [2] worked out at 42%.

Regarding `O=C(Nc1nc(-c2ccccn2)cc2ccccc12)c1ccccc1`, the Ratio in assay [3] came to 16. In assay [2], this compound yielded a Displacement of 0%.

In the case of `Cc1cc(C)cc(C(=O)Nc2nc(-c3ccccn3)cc3ccccc23)c1`, the Displacement in assay [1] was found to be 8%; in assay [2], 0%.

Take `O=C(Nc1nc(-c2ccccn2)cc2ccccc12)c1ccc(Cl)c(Cl)c1`: the Displacement in assay [1] and in assay [2] was 0% throughout.

For `Cc1ccc(C(=O)Nc2nc(-c3ccccn3)cc3ccccc23)cc1C`, the results for the Displacement in assay [1] and in assay [2] were 16% and 0%, respectively.

For the compound `CC(C)C(=O)Nc1nc(-c2ccccn2)cc2ccccc12`, the Displacement worked out at 38% in assay [1] and 48% in assay [2].

For `O=C(Nc1nc(-c2ccccn2)nc2ccccc12)C(F)(F)F`, the Displacement worked out at 8% in assay [1] and 0% in assay [2].

In the case of `O=C(c1ccccc1)N(C(=O)c1ccccc1)c1nc(-c2ccccn2)nc2ccccc12`, the Displacement in assay [1] and in assay [2] was 3% throughout.

(Values after ChEMBL document CHEMBL1131134, “A novel class of adenosine A3 receptor ligands. 2. Structure affinity profile of a series of isoquinoline and quinazoline compounds” (J Med Chem, 1998).)
